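Cultured in 96-well plates, cells were exposed to test compound for 48 hours across five concentrations. TGI is the concentration that stops growth completely.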
Tested on: M19-MEL melanoma
Test: inhibition of tumour cell growth, NCI panel, 48 h

| Compound | TGI |
| --- | --- |
| CCCCCCCCCCCCCCCC(=O)OC1C(O)C(CO)OC(OC)C1NC(=O)N(CCCl)N=O (stereo unspecified) | 32.3 µM |
| CCCCN=C1OCc2[nH][nH]c(=O)c21 | > 100 µM |
| N#CCCN(CCC#N)c1ccc(/C=C2\N=C(c3cc([N+](=O)[O-])ccc3Cl)N(NC(=O)CC(=O)Nc3ccccc3Cl)C2=O)cc1 | > 100 µM |
| CC(=O)N/C(=C\c1ccc(/C=C(\NC(C)=O)C2=NC3C(=O)c4ccccc4C(=O)C3N2)cc1)C1=NC2C(=O)c3ccccc3C(=O)C2N1 (stereo unspecified) | > 100 µM |

Tested on: PC-3 prostate
Test: inhibition of tumour cell growth, NCI panel, 48 h

| Compound | TGI |
| --- | --- |
| C[C@]12CC[C@@H]3c4ccc(OCCN5CCCC5)cc4CC[C@H]3[C@@H]1CCC2=O | > 100 µM |
| CCCOC1OC(CS(=O)(=O)O)C(O)C(O)C1O (stereo unspecified) | > 100 µM |

Reference: PubChem BioAssay (NCI)
